Source: publication PMC12557438, “Thiadiazino-indole, thiadiazino-carbazole and benzothiadiazino-carbazole dioxides: synthesis, physicochemical and early ADME characterization of representatives of new tri-, tetra- and pentacyclic ring systems and their intermediates” (Beilstein Journal of Organic Chemistry, 2025)
Values after ≈ are worked out from the molar mass of the structure shown.

Columns and labels:
Format in all cases: physicochemical
[1] = DMSO solubility (stock solution preparation)
Description: (§1) Kinetic aqueous solubility assay. All compounds were dissolved in DMSO to make stock solutions at 10 mM concentration. […] 5 μL of the stock solutions was pipetted into a 96-well plate containing 495 μL PBS (pH 6.5) in each well to achieve 100 μM target concentration (1% DMSO). […] The plate was then sealed and shaken for 2 hours at room temperature. Each compound was investigated in 3 replicates. After 2 hours, the samples were filtered on a MultriscreenHTS filter plate (MSSLBPC, polycarbonate membrane, Merck KGaA, Darmstadt, Germany) by a Millipore Vacuum Manifold (Merck KGaA, Darmstadt, Germany). Before analyzing, 20 vol % acetonitrile was added to each well to avoid sample precipitation during HPLC analysis.

[2] = Kinetic aqueous solubility assay; set-up: key to Kinetic solubility (no value): –: Compounds with no value were under the detection limit; details: room temperature; for solubility kinetic at 2 h: PBS buffer, pH 6.5, aqueous buffer, kinetic from dmso stock, PBS pH 6.5, 100 µM target concentration (1% DMSO), mean of 3 replicates, read-out: Kinetic solubility; for Kinetic solubility (no value): PBS pH 6.5, 2 hours, dash = under the detection limit
Description: as §1
Analytical methods. […] For a 7-minute long gradient program, eluents A (0.1% formic acid in water) and B (0.1% formic acid in acetonitrile) were used as follows: initial conditions with 30% B were kept for 1 minute, then 90% B was achieved within 3 minutes, kept for further 1 minute, finally the initial condition was adjusted and equilibrated for further 2 minutes. 5-Point calibration series were measured from each compound resulting in R^2 ≈ 0.9990–0.9999.

[3] = Determination of the capacity factor (logk) by RP-HPLC; details: reversed-phase chromatographic capacity factor, eluent pH 7.0
Description: Determination of the capacity factor. […] The same analytical method was used with modified eluents: eluent A was 20 mM triethylamine with phosphoric acid (pH 7.0), and eluent B was acetonitrile without additives. The method time was slightly extended, with a 1-minute longer gradient, resulting in an 8-minute program. The capacity factor was calculated with Equation 3: […]
where k is the capacity factor, tR is the retention time (min) of the compounds and t0 is the dead-time of the column (min).

Row | highest concentration achieved in DMSO [1] [mM] | solubility kinetic at 2 h [2] [µM] | logk (−) pH 7.0 [3] | Kinetic solubility (no value) [2] | SMILES
1 | 0.5 | 2.8 ± 0.2 (≈ 1.07 µg/mL) | 0.660 |  | CN1N=C(c2ccccc2)c2cccc(NN=C3CCCCC3)c2S1(=O)=O [Compound 7j]
2 | 1 |  | 0.653 | – | CC1=NN(C)S(=O)(=O)c2c(N/N=C3\CCCc4ccccc43)cccc21 [(E)-9a]
3 | 0.5 |  | 0.695 | – | CN1N=C(c2ccccc2)c2cccc(N/N=C3\CCCc4ccccc43)c2S1(=O)=O [(E)-9b]
4 | 0.5 | 2.2 ± 0.1 (≈ 0.811 µg/mL) | 0.661 |  | CN1N=C(c2ccccc2)c2cccc(NN=C3CCCC3)c2S1(=O)=O [Compound 7i]
